PubChem BioAssay (NCI)
Where “and” joins values, the source holds several entries; their conditions need not be identical. Equal entries are not always repeated.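 Briefly, cells in 96-well plates were exposed to five compound concentrations for 48 h, and endpoints were estimated by linear interpolation. At the GI50, growth is halved. TGI: concentration producing complete growth inhibition.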

Columns and labels:
Test in all cases: NCI tumour cell line growth inhibition, 48 h
IGROV1 ovarian = test system: IGROV1 ovarian
NCI-H226 lung = test system: NCI-H226 lung
A498 renal = test system: A498 renal
HCT-116 colon = test system: HCT-116 colon
SF-295 CNS = test system: SF-295 CNS
HL-60(TB) leukemia = test system: HL-60(TB) leukemia
HOP-62 NSCLC = test system: HOP-62 NSCLC
MCF7 breast = test system: MCF7 breast
MALME-3M melanoma = test system: MALME-3M melanoma
SF-539 CNS = test system: SF-539 CNS

Row | Compound | TGI (IGROV1 ovarian) [µM] | TGI (NCI-H226 lung) [µM] | TGI (A498 renal) [µM] | TGI (HCT-116 colon) [µM] | TGI (SF-295 CNS) | TGI (HL-60(TB) leukemia) [µM] | TGI (HOP-62 NSCLC) | TGI (MCF7 breast) [µM] | TGI (MALME-3M melanoma) | TGI (SF-539 CNS) [µM] | GI50 (IGROV1 ovarian) [µM] | GI50 (A498 renal) [µM] | GI50 (HOP-62 NSCLC) [µM] | GI50 (MCF7 breast) [µM] | GI50 (MALME-3M melanoma) [µM] | GI50 (HCT-116 colon) [µM] | GI50 (NCI-H226 lung) [µM] | GI50 (SF-295 CNS) [µM] | GI50 (SF-539 CNS) [µM]
1 | Nc1ncnc2c1ncn2C1OC(COP(=O)(O)O)C(O)C1O (configuration not stated) | > 50 | > 50 | > 50 | > 50 | > 50 µM | > 50 | > 50 µM | > 50 | > 50 µM | > 50 |  |  |  |  |  |  |  |  | 
2 | COc1cc2c(cc1OC)-c1cc3ccccc3c[n+]1CC2 | > 100 | > 100 |  | > 100 | > 100 µM |  | > 100 µM | > 100 | 54.3 µM | > 100 |  |  |  |  |  |  |  |  | 
3 | Cc1ccccc1C(=O)c1c(O)c2c(c(O)c1Br)CCCC2 | 42.6 | 58.4 | 43.7 | 30.2 | 47.9 µM | 23 | > 100 µM |  | 24.7 µM | 33.4 |  |  |  |  |  |  |  |  | 
4 | O=[N+]([O-])c1nc(-c2ccccn2)[nH]c1[N+](=O)[O-] | > 100 | > 100 | > 100 | 49 | > 100 µM | > 100 | > 100 µM |  | > 100 µM | > 100 |  |  |  |  |  |  |  |  | 
5 | CCOc1ccc2nc(-c3ccc(O)cc3)sc2c1 | > 100 | > 100 | > 100 | > 100 | 61.6 µM | 8.81 |  | > 100 | > 100 µM | > 100 |  |  |  |  |  |  |  |  | 
6 | C/C=C/[C@H]1O[C@@](O)([C@@H](C)[C@H](O)[C@H](C)[C@H]2OC(=O)/C(OC)=C/C(C)=C/[C@@H](C)[C@@H](O)[C@@H](CC)[C@@H](O)[C@H](C)C/C(C)=C/C=C/[C@@H]2OC)C[C@H](OC2CC(O)C(O)C(C)O2)[C@@H]1C (some centres not stated) | 17 | 11.7 | 12.2 | 4.15 | 10.4 µM | < 0.0075 | 2.7 µM | 8.58 | 0.907 µM |  |  |  |  |  |  |  |  |  | 
7 | O=C(O)c1ccccc1NC(c1ccccc1)c1ccc2cccnc2c1O (configuration not stated) | > 100 | > 28.5 | > 100 | > 64.2 | > 100 µM | 8.22 | > 100 µM | > 62.4 | > 56.4 µM | 22.1 |  |  |  |  |  |  |  |  | 
8 | N/C(=N\N=C/c1ccccc1O)NO | > 100 | 64.8 | 44.4 | 47.8 | > 34.4 µM | > 36 | > 60.8 µM | 26.5 | > 84.1 µM | 28.3 |  |  |  |  |  |  |  |  | 
9 | O=C1OC(c2ccccc2)=N/C1=C\c1cccnc1 | > 100 | > 100 |  |  | > 100 µM | > 100 | > 100 µM | > 100 |  | > 100 |  |  |  |  |  |  |  |  | 
10 | O=C(O)c1cc2ccccc2c(N=Nc2ccccc2)c1O | > 100 |  | > 100 | > 100 | 25.9 µM | 33.1 | 32.5 µM |  | 26.6 µM |  |  |  |  |  |  |  |  |  | 
11 | CC(=O)OC1C(C)OC(Oc2c(C)c3c4c(c2O)[C@@H](C)CC[C@@H]4[C@@H](C)C[C@H]3C=C(C)C)C(O)C1O (some centres not stated) | > 100 |  | 14.7 |  |  |  | 5.3 µM | > 100 | 4.19 µM |  | 46.2 | 4.43 | 2.26 | 5.81 | 1.82 |  |  |  | 
12 | CC[C@]1(O)C[C@H]2CN(CCc3c([nH]c4ccccc34)[C@@](C(=O)OC)(c3cc4c(cc3OC)N(C=O)[C@H]3[C@@](O)(C(=O)OC)[C@H](OC(C)=O)[C@]5(CC)C=CCN6CC[C@]43[C@@H]65)C2)C1 |  |  |  |  | 0.141 µM and 0.536 µM |  | 56.9 µM and 142 µM |  | 6.23 µM and 32 µM and 58.1 µM |  |  | 0.00192 |  |  |  | 0.0011 |  |  | 
13 | CCS(=O)(=O)N1CCC(C(C)n2c(C)c(C(=O)NCc3c(OC)cc(C)[nH]c3=O)c3ccccc32)CC1 (configuration not stated) | > 100 | > 100 | > 100 |  | > 100 µM |  | > 100 µM | > 100 |  | > 100 | 57.6 | > 100 | > 100 | 25.8 |  |  | > 100 | > 100 | > 100
14 | COC1=C2CC(C)CC(OC)C(O)C(C)/C=C(\C)C(OC(N)=O)C(OC)/C=C\C=C(/C)C(=O)NC(=C(C=NC(C)(C)C)C1=O)C2=O (configuration not stated) | 53.2 | 13.8 | 23.6 | 16.2 | 31.7 µM | 1.86 | 41 µM | 35.7 | 5.23 µM | 24.2 |  |  |  |  |  |  |  |  | 
15 | NC(=O)c1nnc2ccc(F)cc2c1N | > 100 | 73.5 | > 100 | > 100 | > 100 µM | > 100 | > 100 µM | > 100 | > 100 µM | > 100 |  |  |  |  |  |  |  |  | 
16 | C/C(CC/C(C)=N/O)=N\O | > 100 | > 100 | > 100 | > 100 | > 100 µM | > 100 | > 100 µM | > 100 | > 100 µM | > 100 |  |  |  |  |  |  |  |  | 
